Legend:
[1] = tested on: IL-1β; test: ELISA of IL-1β in brain tissue of cerebral ischemia-reperfusion rats; details: brain homogenate, 12 mg/kg by gavage 5 days
[2] = tested on: acute blood stagnation model rats; test: Whole blood and plasma viscosities in acute blood stagnation model rats; assay type: in vivo, rat; details: 12 mg/kg by gavage 5 days
Excerpt: MAO Teng-min's methods were modified to prepare the model.

[3] = tested on: IL-10; test: ELISA of IL-10 in brain tissue of cerebral ischemia-reperfusion rats; details: brain homogenate, 12 mg/kg by gavage 5 days
[4] = tested on: TNF-α; test: ELISA of TNF-α in brain tissue of cerebral ischemia-reperfusion rats; details: brain homogenate, 12 mg/kg by gavage 5 days
[5] = tested on: Middle Cerebral Artery Thrombosis (MCAT) Rats; test: Water content in brain tissues in middle cerebral artery thrombosis rats; assay type: in vivo, rat; details: 24 h after operation, 12 mg/kg
[6] = tested on: TGF-β; test: ELISA of TGF-β in brain tissue of cerebral ischemia-reperfusion rats; details: brain homogenate, 12 mg/kg by gavage 5 days
[7] = tested on: acute blood stagnation model rats; test: Erythrocyte aggregation and deformability in acute blood stagnation model rats; assay type: in vivo, rat; details: 12 mg/kg
Description: MAO Teng-min's methods were modified to prepare the model. Rats were subcutaneously injected with 0.8 mg/kg adrenaline twice at 1 h and 5 h after administration on the fifth day, and were placed into ice-water at 4° C. for 5 min at 2 h after the first injection of adrenaline.
To 40 μl of heparinized blood, 1 ml of deforming solution was added and mixed thoroughly. A sample of 0.8 ml was tested in an erythrocyte aggregation/deformability tester, and erythrocyte deformability was expressed as maximal erythrocyte deformation index and area under curve (SSS). Another 0.8 ml of anticoagulated blood was tested in an erythrocyte aggregation/deformability tester, and erythrocyte aggregation was expressed as maximal erythrocyte aggregation index (MAXD) and area under curve ([…]).

COCCOC(=O)C1=C(C)NC(C)=C(C(=O)OC(C)C)C1c1cccc([N+](=O)[O-])c1 (stereo not drawn) [Nimodipine, reference compound]
IL-1β [1]: 9.01 ± 0.81 pg/mL | Plasma viscosity (100 S^−1) [2]: 1.41 ± 0.14 | Whole blood viscosity 1 S^−1 [2]: 30.45 ± 8.74 | Whole blood viscosity 5 S^−1 [2]: 12.34 ± 2.58 | Whole blood viscosity 30 S^−1 [2]: 6.47 ± 0.92 | Whole blood viscosity 200 S^−1 [2]: 4.51 ± 0.55 | IL-10 [3]: 4.98 ± 3.54 pg/mL | TNFα [4]: 7.92 ± 0.56 pg/mL | Water content of affected hemisphere [5]: 80.37 ± 0.73 % | Water content of unaffected hemisphere [5]: 79.44 ± 0.41% | TGF-β [6]: 12.01 ± 2.54 pg/mL | Erythrocyte aggregation SS ([7]; area under curve): 160.38 ± 16.50 | Erythrocyte deformability SSS ([7]; area under curve): 353.92 ± 15.83 | Erythrocyte aggregation MAXD ([7]; maximal erythrocyte aggregation index): 0.80 ± 0.09 | Erythrocyte deformability MAXDI ([7]; maximal erythrocyte deformation index): 0.70 ± 0.03
